Reference: patent publication EP1078634A1, “Medicament for inhibiting NF-kB” (Max Zeller Söhne AG, priority 1999, dated 2001)

Target: T1, COX-2 (Homo sapiens, UniProt P35354)
T1 construct: Dabei wurden Mono Mac 6-Zellen mit unterschiedlichen Konzentrationen der Testsubstanzen während 30 min inkubiert; endogenous in cells; host or cells: Mono Mac 6 cells, LPS-stimulated
T1 sequence (P35354 18-604): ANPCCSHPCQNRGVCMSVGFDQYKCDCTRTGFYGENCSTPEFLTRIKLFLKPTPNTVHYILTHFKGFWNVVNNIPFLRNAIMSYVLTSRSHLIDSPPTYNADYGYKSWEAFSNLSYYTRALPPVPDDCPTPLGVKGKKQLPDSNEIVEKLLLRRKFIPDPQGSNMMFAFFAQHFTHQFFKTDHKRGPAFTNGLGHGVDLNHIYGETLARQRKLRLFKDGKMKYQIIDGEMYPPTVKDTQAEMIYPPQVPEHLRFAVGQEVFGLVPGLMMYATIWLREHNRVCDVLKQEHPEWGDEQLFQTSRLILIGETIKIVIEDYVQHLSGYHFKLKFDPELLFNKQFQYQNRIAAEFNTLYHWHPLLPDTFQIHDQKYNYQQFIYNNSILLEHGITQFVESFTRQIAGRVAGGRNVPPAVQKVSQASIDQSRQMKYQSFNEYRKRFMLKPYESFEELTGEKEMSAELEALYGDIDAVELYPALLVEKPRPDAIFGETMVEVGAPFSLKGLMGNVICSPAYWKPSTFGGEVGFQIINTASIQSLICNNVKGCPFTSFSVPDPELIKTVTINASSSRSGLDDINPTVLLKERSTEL
Assay: COX-2 inhibition in LPS-stimulated Mono Mac 6 cells (Keto PGF 1α ELISA, method of Berg et al.)
Type: cell-based
Settings: COX-2 versus COX-1, in words
Method: Die Bestimmung der COX-2 inhibitorischen Wirkung der gemäss Beispiel 2 synthetisierten Verbindungen wurde mit Mono Max 6-Zellen nach der Methode von Berg et al., J. Pharmaco. Toxicol.
Dabei wurden Mono Mac 6-Zellen mit unterschiedlichen Konzentrationen der Testsubstanzen während 30 min inkubiert, anschliessend Lipopolysaccharid (LPS, 100 ng/ml) zupipettiert und während weiteren 6 Stunden inkubiert. Anschliessend wurde Arachidonsäure zugegeben (Endkonz. 30 µM), während 15 Min. inkubiert und das gebildete Keto PGF 1α mittels ELISA bestimmt.
In einer Variante wurden Testsubstanz und LPS zeitgleich eingesetzt. Die Messung der COX1 Hemmung erfolgte in HEL-Zellen nach der Methode von Berg et al., J. Pharmacol. Toxicol. […] Dabei wurden HEL Zellen mit unterschiedlichen Konzentrationen der Testsubstanzen während 30 Min. inkubiert, anschliessend Arachidonsäure zugesetzt (Endkonz. 30 uM), während 15 Min. inkubiert und das gebildete Tromboxan B2 mittels ELISA gemessen.

Compound | präferentielle Hemmung der induzierbaren COX-2
O=C1c2cc(Cl)ccc2-n2c1nc1cc(N3CCOCC3)ccc1c2=O [Verbindung 86] | deutliche präferentielle Hemmung der induzierbaren COX-2

Tested on: NF-kB
Assay: NF-kB binding to DNA, electrophoretic mobility shift assay (EMSA) with Jurkat T cells
Type: cell-based
Settings: TNF-a stimulation
Description: Die in Beispiel 2 hergestellten Substanzen wurden in zellfreien und zellulären Testsystemen nach bekannten Methoden auf NF-kB hemmende Wirkung geprüft. […] Bestimmt wurde die in-vivo und die in-vitro NF-kB Bindung an DNA durch Messung der elektrophoretischen Mobilitätsverschiebung.
Die in vivo Bindung wurde mit Jurkat T-Zellen durchgeführt. Die Zellen wurden während einer Stunde mit verschiedenen Konzentrationen der verschiedenen Extrakte inkubiert und anschliessend mit TNF-a während einer Stunde stimuliert. Total-Protein-Extrakte der Zellen wurden gewonnen und in einem Assay auf elektrophoretische Mobilitätsverschiebung (electrophoretic mobility shift asasy, EMSA) auf NF-kB-bindende Aktivität geprüft.
Die in vitro Bindung wurde ebenfalls mit Jurkat T-Zellen geprüft. Zellextrakte von stimulierten wie unstimulierten Zellen wurden gewonnen. Gleiche Proteinmengen (10-20 µg) wurden 2 Stunden mit Konzentrationsreihen der verschiedenen Isatis-Extrakte inkubiert und schliesslich auf elektrophoretische Mobilitätsverschiebung (EMSA) analysiert.

Compound | NF-kB: Grenzkonzentration, bei der eben noch ein Hemmeffekt im EMSA feststellbar ist
O=C1c2ccccc2-n2c1nc1ccc(Cl)cc1c2=O [Verbindung 5] | 50 µM/Liter
O=C1c2cc(Cl)ccc2-n2c1nc1ccccc1c2=O [Verbindung 10] | 5 µM/Liter
Nc1ccc2nc3n(c(=O)c2c1)-c1ccc(F)cc1C3=O [Verbindung 20] | 5 µM/Liter
Cc1cc(C)c2nc3n(c(=O)c2c1)-c1ccc(F)cc1C3=O [Verbindung 24] | >100 µM/Liter
CN1CCN(c2ccc3c(=O)n4c(nc3c2)C(=O)c2cc(F)ccc2-4)CC1 [Verbindung 32] | 10 µM/Liter
CCOC(=O)c1ccc2c(c1)C(=O)c1nc3ccccc3c(=O)n1-2 [Verbindung 37] | >100 µM/Liter
CC1CN(c2cc3c(cc2F)C(=O)c2nc4ccccc4c(=O)n2-3)CCN1C(=O)OC(C)(C)C (stereo not drawn) [Verbindung 42] | >100 µM/Liter
CCCCCCCCS(=O)(=O)c1ccc2c(c1)C(=O)c1nc3c(OC)cccc3c(=O)n1-2 [Verbindung 69] | >100 µM/Liter
O=C1c2cc(Cl)ccc2-n2c1nc1cc(N3CCOCC3)ccc1c2=O [Verbindung 86] | 0,5 µM/Liter
CN(CC(=O)O)c1ccc2c(=O)n3c(nc2c1)C(=O)c1cc(Cl)ccc1-3 [Verbindung 99] | 1 µM/Liter
CN(CCO)c1ccc2c(=O)n3c(nc2c1)C(=O)c1cc(OC(F)(F)F)ccc1-3 [Verbindung 110] | 5 µM/Liter
